Experimental data from article PMC13210772, “Dual FLT3/MAPK14 Proteolysis-Targeting Chimera (PROTAC) Induces Potent Acute Myeloid Leukemia Cell Death” (Pharmaceuticals, 2026).

What was measured:
Assay in all cases: NanoBRET CELLinib128
Format in all cases: binding
PLK4 = target: T1, PLK4 (Homo sapiens, UniProt O00444); conditions: 100% no effect, 0% complete tracer displacement, read-out: Tracer bound
T1 construct: Full-length kinase ORF (Promega, Madison, WI, USA) cloned in frame with a NanoLuc-vector was transfected into HEK293T cells; host or cells: HEK293T
Description: (§1) To get an impression about the binding strength of the PROTAC MA191 and the reference inhibitor MA68 to other kinases besides FLT3-ITD the binding on a kinase panel of further 128 representative protein kinases at 1 μM concentration was tested using the NanoBRET^TM cellular target engagement assay (CELLinib128 assay, CELLinib GmbH, Frankfurt, Germany). […] In none of the 128 kinases MA191 was able to displace the tracer (inhibitor) used by more than 50%, Table S1, Supplementary Information).
(§2) The CELLinib128 assay was performed by CELLinib GmbH, Frankfurt (Germany) as described previously. In brief: Full-length kinase ORF (Promega, Madison, WI, USA) cloned in frame with a NanoLuc-vector was transfected into HEK293T cells in Opti-MEM without phenol red (Life Technologies, Carlsbad, CA, USA) at a density of 2 × 10^5 cells/mL using FuGENE HD (Promega, E2312) and proteins were allowed to express for 20 h. For CDKs, where indicated below, an excess of an activator without an NLuc-fusion was cotransfected. […] The system was allowed to equilibrate at 37 °C for 2 h and 5% CO2 prior to BRET measurements. For PKCs, a chemical activator PMA was added in a final concentration of 1 µM was added together with test compounds and tracers (Promega, V1171). To measure BRET, NanoBRET^TM NanoGlo substrate + extracellular NanoLuc inhibitor (Promega, N2160) were added as per the manufacturer’s protocol, and filtered luminescence was measured (450 nm BP filter (donor) and 610 nm LP filter (acceptor)). For the 1-shot test compounds, data were normalized to the tracer control and the background control or control compound plateau and an average and SD were calculated. […] For the control compounds competitive displacement data were normalized to the tracer Ctrl and the background Ctrl and then plotted and fitted using GraphPad Prism 10 software using a normalized 3-parameter curve fit with the following equation: Y = 100/(1 + 10^X−LogIC50).

ULK3v1 = target: T2, ULK3v1 (Homo sapiens, UniProt Q6PHR2); conditions: 1 µM; 100% no effect, 0% complete tracer displacement
T2 construct: Full-length kinase ORF (Promega, Madison, WI, USA) cloned in frame with a NanoLuc-vector; host or cells: HEK293T
Description: as §1, §2

CDK18-CCNY = target: T3, CDK18-CCNY (Homo sapiens, UniProt Q07002); conditions: 100% no effect, 0% complete tracer displacement, read-out: Tracer bound
T3 construct: Full-length kinase ORF (Promega, Madison, WI, USA) cloned in frame with a NanoLuc-vector was transfected into HEK293T cells; host or cells: HEK293T
Description: as §1, §2

CDK3-CCNE1 = target: T4, CDK3-CCNE1 (Homo sapiens, UniProt Q00526); conditions: 1 µM; 100% no effect, 0% complete tracer displacement
T4 construct: Full-length kinase ORF (Promega, Madison, WI, USA) cloned in frame with a NanoLuc-vector was transfected into HEK293T cells; host or cells: HEK293T
Description: as §1, §2

JAK2 = target: T5, JAK2 (Homo sapiens, UniProt O60674); conditions: 1 µM; 100% no effect, 0% complete tracer displacement
T5 construct: Full-length kinase ORF (Promega, Madison, WI, USA) cloned in frame with a NanoLuc-vector was transfected into HEK293T cells; host or cells: HEK293T
Description: as §1, §2

FGFR2 = target: T6, FGFR2 (Homo sapiens, UniProt P21802); conditions: 100% no effect, 0% complete tracer displacement, read-out: Tracer bound
T6 construct: Full-length kinase ORF (Promega, Madison, WI, USA) cloned in frame with a NanoLuc-vector was transfected into HEK293T cells; host or cells: HEK293T
Description: as §1, §2

CDK20-CCNH = target: T7, CDK20-CCNH (Homo sapiens, UniProt Q8IZL9); conditions: 100% no effect, 0% complete tracer displacement, read-out: Tracer bound
T7 construct: Full-length kinase ORF (Promega, Madison, WI, USA) cloned in frame with a NanoLuc-vector was transfected into HEK293T cells; host or cells: HEK293T
T7 sequence (Q8IZL9 whole entry): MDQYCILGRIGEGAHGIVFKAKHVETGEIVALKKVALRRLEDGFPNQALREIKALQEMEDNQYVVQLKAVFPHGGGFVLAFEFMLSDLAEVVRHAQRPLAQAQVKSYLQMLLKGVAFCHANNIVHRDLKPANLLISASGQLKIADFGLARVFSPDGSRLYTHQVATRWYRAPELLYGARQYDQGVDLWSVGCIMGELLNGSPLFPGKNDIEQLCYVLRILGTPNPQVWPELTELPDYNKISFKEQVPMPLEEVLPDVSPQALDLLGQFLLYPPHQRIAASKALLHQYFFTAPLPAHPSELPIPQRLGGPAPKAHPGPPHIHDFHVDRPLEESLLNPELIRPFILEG
T7 sequence (P51946 whole entry partner): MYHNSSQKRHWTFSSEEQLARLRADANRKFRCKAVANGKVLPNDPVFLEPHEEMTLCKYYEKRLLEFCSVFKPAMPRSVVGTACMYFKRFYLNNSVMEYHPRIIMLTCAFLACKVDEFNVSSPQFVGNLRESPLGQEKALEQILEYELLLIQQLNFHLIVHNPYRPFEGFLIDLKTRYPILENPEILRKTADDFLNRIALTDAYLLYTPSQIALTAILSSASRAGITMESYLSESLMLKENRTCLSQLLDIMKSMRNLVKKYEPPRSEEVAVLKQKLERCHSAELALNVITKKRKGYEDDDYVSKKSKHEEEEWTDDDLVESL
Description: as §1, §2

LIMK2 = target: T8, LIMK2 (Homo sapiens, UniProt P53671); conditions: 100% no effect, 0% complete tracer displacement, read-out: Tracer bound
T8 construct: Full-length kinase ORF (Promega, Madison, WI, USA) cloned in frame with a NanoLuc-vector was transfected into HEK293T cells; host or cells: HEK293T
T8 sequence (P53671 whole entry): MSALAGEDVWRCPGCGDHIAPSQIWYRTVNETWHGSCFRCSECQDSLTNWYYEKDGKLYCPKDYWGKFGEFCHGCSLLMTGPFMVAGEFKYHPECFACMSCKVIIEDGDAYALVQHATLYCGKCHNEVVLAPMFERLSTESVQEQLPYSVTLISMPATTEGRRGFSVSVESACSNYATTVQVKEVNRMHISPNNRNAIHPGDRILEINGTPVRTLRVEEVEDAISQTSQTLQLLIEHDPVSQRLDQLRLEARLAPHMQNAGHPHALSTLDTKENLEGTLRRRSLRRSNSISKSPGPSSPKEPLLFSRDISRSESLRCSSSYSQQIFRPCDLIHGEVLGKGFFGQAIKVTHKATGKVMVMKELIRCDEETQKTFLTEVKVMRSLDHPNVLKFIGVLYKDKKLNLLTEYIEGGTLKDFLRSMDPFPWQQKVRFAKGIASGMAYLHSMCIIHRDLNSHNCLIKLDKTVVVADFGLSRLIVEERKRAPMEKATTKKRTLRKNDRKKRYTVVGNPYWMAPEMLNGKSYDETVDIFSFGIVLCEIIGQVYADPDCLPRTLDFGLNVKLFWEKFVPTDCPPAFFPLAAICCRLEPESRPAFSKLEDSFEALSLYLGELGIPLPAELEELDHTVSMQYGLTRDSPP
Description: as §1, §2

NEK3 = target: T9, NEK3 (Homo sapiens, UniProt P51956); conditions: 100% no effect, 0% complete tracer displacement, read-out: Tracer bound
T9 construct: Full-length kinase ORF (Promega, Madison, WI, USA) cloned in frame with a NanoLuc-vector was transfected into HEK293T cells; host or cells: HEK293T
Description: as §1, §2

MAP4K3 = target: T10, MAP4K3 (Homo sapiens, UniProt Q8IVH8); conditions: 1 µM; 100% no effect, 0% complete tracer displacement
T10 construct: Full-length kinase ORF (Promega, Madison, WI, USA) cloned in frame with a NanoLuc-vector was transfected into HEK293T cells; host or cells: HEK293T
Description: as §1, §2

BRSK1 = target: T11, BRSK1 (Homo sapiens, UniProt Q8TDC3); conditions: 100% no effect, 0% complete tracer displacement, read-out: Tracer bound
T11 construct: Full-length kinase ORF (Promega, Madison, WI, USA) cloned in frame with a NanoLuc-vector was transfected into HEK293T cells; host or cells: HEK293T
Description: as §1, §2

TNK1 = target: T12, TNK1 (Homo sapiens, UniProt Q13470); conditions: 100% no effect, 0% complete tracer displacement, read-out: Tracer bound
T12 construct: Full-length kinase ORF (Promega, Madison, WI, USA) cloned in frame with a NanoLuc-vector; host or cells: HEK293T
Description: as §1, §2

MLTK = target: T13, MLTK (Homo sapiens, UniProt Q9NYL2); conditions: 100% no effect, 0% complete tracer displacement, read-out: Tracer bound
T13 construct: Full-length kinase ORF (Promega, Madison, WI, USA) cloned in frame with a NanoLuc-vector was transfected into HEK293T cells; host or cells: HEK293T
Description: as §1, §2

MAPK9 = target: T14, MAPK9 (Homo sapiens, UniProt P45984); conditions: 1 µM; 100% no effect, 0% complete tracer displacement
T14 construct: Full-length kinase ORF (Promega, Madison, WI, USA) cloned in frame with a NanoLuc-vector was transfected into HEK293T cells; host or cells: HEK293T
T14 sequence (P45984 whole entry): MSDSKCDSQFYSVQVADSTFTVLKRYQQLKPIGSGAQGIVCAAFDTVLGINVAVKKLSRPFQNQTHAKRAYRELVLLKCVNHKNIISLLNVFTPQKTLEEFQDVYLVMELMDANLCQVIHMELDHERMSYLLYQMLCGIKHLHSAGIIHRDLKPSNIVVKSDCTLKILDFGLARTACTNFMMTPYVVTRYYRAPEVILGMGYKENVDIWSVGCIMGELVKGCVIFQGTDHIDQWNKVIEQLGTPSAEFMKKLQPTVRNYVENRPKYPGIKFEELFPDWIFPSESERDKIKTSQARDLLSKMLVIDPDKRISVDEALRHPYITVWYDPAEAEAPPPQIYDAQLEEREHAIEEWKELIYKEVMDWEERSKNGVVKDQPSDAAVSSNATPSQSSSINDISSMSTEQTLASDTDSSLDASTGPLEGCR
Description: as §1, §2

CDK17-CCNY = target: T15, CDK17-CCNY (Homo sapiens, UniProt Q00537); conditions: 100% no effect, 0% complete tracer displacement, read-out: Tracer bound
T15 construct: Full-length kinase ORF (Promega, Madison, WI, USA) cloned in frame with a NanoLuc-vector was transfected into HEK293T cells; host or cells: HEK293T
Description: as §1, §2

CAMK2A = target: T16, CAMK2A (Homo sapiens, UniProt Q9UQM7); conditions: 100% no effect, 0% complete tracer displacement, read-out: Tracer bound
T16 construct: Full-length kinase ORF (Promega, Madison, WI, USA) cloned in frame with a NanoLuc-vector was transfected into HEK293T cells; host or cells: HEK293T
Description: as §1, §2

CDK5-CDK5R2 = target: T17, CDK5-CDK5R2 (Homo sapiens, UniProt Q00535); conditions: 100% no effect, 0% complete tracer displacement, read-out: Tracer bound
T17 construct: Full-length kinase ORF (Promega, Madison, WI, USA) cloned in frame with a NanoLuc-vector was transfected into HEK293T cells; host or cells: HEK293T
Description: as §1, §2

TEK = target: T18, TEK (Homo sapiens, UniProt Q02763); conditions: 100% no effect, 0% complete tracer displacement, read-out: Tracer bound
T18 construct: Full-length kinase ORF (Promega, Madison, WI, USA) cloned in frame with a NanoLuc-vector was transfected into HEK293T cells; host or cells: HEK293T
T18 sequence (Q02763 23-1124): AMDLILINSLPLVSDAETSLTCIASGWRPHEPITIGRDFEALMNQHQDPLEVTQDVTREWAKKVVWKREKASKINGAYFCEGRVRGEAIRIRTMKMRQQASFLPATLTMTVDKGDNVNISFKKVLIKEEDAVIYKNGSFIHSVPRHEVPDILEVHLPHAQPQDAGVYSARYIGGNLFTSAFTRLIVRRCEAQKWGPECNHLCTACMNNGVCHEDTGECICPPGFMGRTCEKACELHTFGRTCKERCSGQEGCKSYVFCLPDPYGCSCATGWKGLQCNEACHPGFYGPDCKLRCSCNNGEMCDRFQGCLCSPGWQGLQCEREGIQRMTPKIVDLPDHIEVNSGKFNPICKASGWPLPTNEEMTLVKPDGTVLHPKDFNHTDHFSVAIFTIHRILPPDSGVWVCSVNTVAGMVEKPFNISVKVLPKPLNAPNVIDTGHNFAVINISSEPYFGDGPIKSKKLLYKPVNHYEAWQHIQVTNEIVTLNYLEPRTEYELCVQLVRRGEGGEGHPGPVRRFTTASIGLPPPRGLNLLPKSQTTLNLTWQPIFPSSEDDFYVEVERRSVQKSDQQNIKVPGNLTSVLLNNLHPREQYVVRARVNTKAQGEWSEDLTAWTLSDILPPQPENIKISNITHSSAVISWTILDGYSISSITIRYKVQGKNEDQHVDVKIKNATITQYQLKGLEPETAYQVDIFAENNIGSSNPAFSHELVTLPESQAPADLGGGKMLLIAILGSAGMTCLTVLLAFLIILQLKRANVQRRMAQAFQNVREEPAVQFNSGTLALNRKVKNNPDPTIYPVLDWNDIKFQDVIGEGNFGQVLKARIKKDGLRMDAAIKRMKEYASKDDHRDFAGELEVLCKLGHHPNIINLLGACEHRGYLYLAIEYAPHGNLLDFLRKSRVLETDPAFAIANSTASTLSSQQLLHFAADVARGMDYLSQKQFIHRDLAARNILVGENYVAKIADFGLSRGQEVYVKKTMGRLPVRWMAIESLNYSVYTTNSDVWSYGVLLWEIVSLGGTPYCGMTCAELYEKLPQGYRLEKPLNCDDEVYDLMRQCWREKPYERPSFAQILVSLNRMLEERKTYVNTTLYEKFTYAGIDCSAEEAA
Description: as §1, §2

RET = target: T19, RET (Homo sapiens, UniProt P07949); conditions: 100% no effect, 0% complete tracer displacement, read-out: Tracer bound
T19 construct: Full-length kinase ORF (Promega, Madison, WI, USA) cloned in frame with a NanoLuc-vector was transfected into HEK293T cells; host or cells: HEK293T
Description: as §1, §2

RPS6KA6 = target: T20, RPS6KA6 (Homo sapiens, UniProt Q9UK32); conditions: 1 µM; 100% no effect, 0% complete tracer displacement
T20 construct: Full-length kinase ORF (Promega, Madison, WI, USA) cloned in frame with a NanoLuc-vector was transfected into HEK293T cells; host or cells: HEK293T
Description: as §1, §2

LATS1 = target: T21, LATS1 (Homo sapiens, UniProt O95835); conditions: 100% no effect, 0% complete tracer displacement, read-out: Tracer bound
T21 construct: Full-length kinase ORF (Promega, Madison, WI, USA) cloned in frame with a NanoLuc-vector was transfected into HEK293T cells; host or cells: HEK293T
Description: as §1, §2

MAPK6 = target: T22, MAPK6 (Homo sapiens, UniProt Q16659); conditions: 100% no effect, 0% complete tracer displacement, read-out: Tracer bound
T22 construct: Full-length kinase ORF (Promega, Madison, WI, USA) cloned in frame with a NanoLuc-vector was transfected into HEK293T cells; host or cells: HEK293T
Description: as §1, §2

PRKAA1 = target: T23, PRKAA1 (Homo sapiens, UniProt Q13131); conditions: 100% no effect, 0% complete tracer displacement, read-out: Tracer bound
T23 construct: Full-length kinase ORF (Promega, Madison, WI, USA) cloned in frame with a NanoLuc-vector was transfected into HEK293T cells; host or cells: HEK293T
Description: as §1, §2

TNK2 = target: T24, TNK2 (Homo sapiens, UniProt Q07912); conditions: 100% no effect, 0% complete tracer displacement, read-out: Tracer bound
T24 construct: Full-length kinase ORF (Promega, Madison, WI, USA) cloned in frame with a NanoLuc-vector; host or cells: HEK293T
Description: as §1, §2

ULK2 = target: T25, ULK2 (Homo sapiens, UniProt Q8IYT8); conditions: 100% no effect, 0% complete tracer displacement, read-out: Tracer bound
T25 construct: Full-length kinase ORF (Promega, Madison, WI, USA) cloned in frame with a NanoLuc-vector; host or cells: HEK293T
Description: as §1, §2

FGFR4 = target: T26, FGFR4 (Homo sapiens, UniProt P22455); conditions: 100% no effect, 0% complete tracer displacement, read-out: Tracer bound
T26 construct: Full-length kinase ORF (Promega, Madison, WI, USA) cloned in frame with a NanoLuc-vector was transfected into HEK293T cells; host or cells: HEK293T
Description: as §1, §2

CSNK1G2 = target: T27, CSNK1G2 (Homo sapiens, UniProt P78368); conditions: 1 µM; 100% no effect, 0% complete tracer displacement
T27 construct: Full-length kinase ORF (Promega, Madison, WI, USA) cloned in frame with a NanoLuc-vector was transfected into HEK293T cells; host or cells: HEK293T
T27 sequence (P78368 whole entry): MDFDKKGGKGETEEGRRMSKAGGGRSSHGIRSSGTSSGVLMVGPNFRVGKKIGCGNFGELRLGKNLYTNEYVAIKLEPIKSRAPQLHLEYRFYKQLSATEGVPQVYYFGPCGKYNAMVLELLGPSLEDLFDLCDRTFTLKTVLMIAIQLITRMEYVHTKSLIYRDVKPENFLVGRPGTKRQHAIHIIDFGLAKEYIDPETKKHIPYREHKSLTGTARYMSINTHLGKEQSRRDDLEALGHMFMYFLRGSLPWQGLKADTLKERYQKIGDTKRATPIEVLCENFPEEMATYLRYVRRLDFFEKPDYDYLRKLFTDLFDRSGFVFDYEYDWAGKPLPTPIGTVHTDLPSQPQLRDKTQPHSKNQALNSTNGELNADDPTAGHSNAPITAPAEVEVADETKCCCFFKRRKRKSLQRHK
Description: as §1, §2

RPS6KA2 = target: T28, RPS6KA2 (Homo sapiens, UniProt Q15349); conditions: 100% no effect, 0% complete tracer displacement, read-out: Tracer bound
T28 construct: Full-length kinase ORF (Promega, Madison, WI, USA) cloned in frame with a NanoLuc-vector was transfected into HEK293T cells; host or cells: HEK293T
T28 sequence (Q15349 whole entry): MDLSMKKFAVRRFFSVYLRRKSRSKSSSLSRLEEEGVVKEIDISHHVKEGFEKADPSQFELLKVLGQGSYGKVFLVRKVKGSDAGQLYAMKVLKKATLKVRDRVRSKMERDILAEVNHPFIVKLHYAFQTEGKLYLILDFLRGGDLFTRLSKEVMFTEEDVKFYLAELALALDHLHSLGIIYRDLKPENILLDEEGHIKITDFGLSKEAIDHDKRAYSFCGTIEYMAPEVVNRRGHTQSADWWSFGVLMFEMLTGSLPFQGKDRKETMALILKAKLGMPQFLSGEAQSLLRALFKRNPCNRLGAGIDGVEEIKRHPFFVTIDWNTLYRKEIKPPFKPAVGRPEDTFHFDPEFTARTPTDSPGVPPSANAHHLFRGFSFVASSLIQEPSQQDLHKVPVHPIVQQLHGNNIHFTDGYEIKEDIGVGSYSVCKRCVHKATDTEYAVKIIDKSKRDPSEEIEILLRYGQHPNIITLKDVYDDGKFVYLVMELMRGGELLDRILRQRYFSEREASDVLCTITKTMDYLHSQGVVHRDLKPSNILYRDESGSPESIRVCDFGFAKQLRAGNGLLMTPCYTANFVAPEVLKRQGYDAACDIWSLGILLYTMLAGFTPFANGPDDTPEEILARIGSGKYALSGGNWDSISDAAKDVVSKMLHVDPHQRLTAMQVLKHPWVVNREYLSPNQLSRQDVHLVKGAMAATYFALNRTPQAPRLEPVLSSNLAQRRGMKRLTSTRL
Description: as §1, §2

PRKCE-PMA = target: T29, PRKCE-PMA (Homo sapiens, UniProt Q02156); conditions: 100% no effect, 0% complete tracer displacement, read-out: Tracer bound
T29 construct: Full-length kinase ORF (Promega, Madison, WI, USA) cloned in frame with a NanoLuc-vector was transfected into HEK293T cells; host or cells: HEK293T
T29 sequence (Q02156 whole entry): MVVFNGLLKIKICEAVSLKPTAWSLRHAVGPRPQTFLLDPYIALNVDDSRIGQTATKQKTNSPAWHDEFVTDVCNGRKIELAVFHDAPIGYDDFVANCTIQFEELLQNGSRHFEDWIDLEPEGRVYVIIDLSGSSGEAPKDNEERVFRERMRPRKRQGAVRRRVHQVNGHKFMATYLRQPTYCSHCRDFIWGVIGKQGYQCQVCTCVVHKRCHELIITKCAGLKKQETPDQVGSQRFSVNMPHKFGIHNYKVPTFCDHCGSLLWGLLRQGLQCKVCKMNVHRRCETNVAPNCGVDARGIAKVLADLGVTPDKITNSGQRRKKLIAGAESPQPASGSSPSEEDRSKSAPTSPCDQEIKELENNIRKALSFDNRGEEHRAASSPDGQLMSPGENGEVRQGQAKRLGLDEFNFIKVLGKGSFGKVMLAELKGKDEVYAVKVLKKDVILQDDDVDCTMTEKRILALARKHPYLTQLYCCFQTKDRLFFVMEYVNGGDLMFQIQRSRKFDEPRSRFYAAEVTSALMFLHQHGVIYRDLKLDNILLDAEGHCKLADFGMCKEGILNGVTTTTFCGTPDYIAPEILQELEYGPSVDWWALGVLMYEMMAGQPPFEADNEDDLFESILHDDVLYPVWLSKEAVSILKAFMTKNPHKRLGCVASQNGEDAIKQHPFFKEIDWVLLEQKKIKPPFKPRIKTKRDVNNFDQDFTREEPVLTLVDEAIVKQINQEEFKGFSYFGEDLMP
Description: as §1, §2

MAP4K5 = target: T30, MAP4K5 (Homo sapiens, UniProt Q9Y4K4); conditions: 100% no effect, 0% complete tracer displacement, read-out: Tracer bound
T30 construct: Full-length kinase ORF (Promega, Madison, WI, USA) cloned in frame with a NanoLuc-vector was transfected into HEK293T cells; host or cells: HEK293T
Description: as §1, §2

remaining activity at 1 µM (PLK4): 107% | Tracer bound (ULK3v1): 96.1% | remaining activity at 1 µM (CDK18-CCNY): 28.6% | Tracer bound (CDK3-CCNE1): 81.0% | Tracer bound (JAK2): 110.6% | remaining activity at 1 µM (FGFR2): 40.7% | remaining activity at 1 µM (CDK20-CCNH): 93.3% | remaining activity at 1 µM (LIMK2): 88.5% | remaining activity at 1 µM (NEK3): 120% | Tracer bound (MAP4K3): 102.6% | remaining activity at 1 µM (BRSK1): 106% | remaining activity at 1 µM (TNK1): 114% | remaining activity at 1 µM (MLTK): 15.3% | Tracer bound (MAPK9): 94.9% | remaining activity at 1 µM (CDK17-CCNY): 13.9% | remaining activity at 1 µM (CAMK2A): 102% | remaining activity at 1 µM (CDK5-CDK5R2): 86.1% | remaining activity at 1 µM (TEK): 12.6% | remaining activity at 1 µM (RET): 3.8% | Tracer bound (RPS6KA6): 113.5% | remaining activity at 1 µM (LATS1): 106% | remaining activity at 1 µM (MAPK6): 113% | remaining activity at 1 µM (PRKAA1): 114% | remaining activity at 1 µM (TNK2): 116% | remaining activity at 1 µM (ULK2): 91.7% | remaining activity at 1 µM (FGFR4): 86.5% | Tracer bound (CSNK1G2): 95.1% | remaining activity at 1 µM (RPS6KA2): 116% | remaining activity at 1 µM (PRKCE-PMA): 76.2% | remaining activity at 1 µM (MAP4K5): 96.3%
SMILES: CNC(=O)c1cc(Oc2ccc(NC(=O)Nc3cc(C(C)(C)C)on3)cc2)ccn1 [MA68, reference compound]
